Source: a melting point compilation (Tetko et al.)

melting point [°C]	Compound
80 to 82	O=S(=O)(CCCl)c1cc(Cl)ccc1Cl
129 to 131	NNC(=O)Cc1ccc(F)cc1
149 to 151	Cc1nnc2ccc(Br)cn12
91 to 93	CNS(=O)(=O)CC1CCCN1 (stereo not given)
193 to 195	Cc1cc(N)n(N)c(=O)c1
227 to 229	CCCC(NCCC(=O)Nc1cc(C)on1)C(=O)O (stereo not given)
59 to 61	Cc1ccc(C#N)c(Sc2ccccc2)c1
194 to 196	Cc1ccc(C#N)cc1S(N)(=O)=O
173 to 175	CCOc1cc(C(=O)O)ccc1C
168 to 169	O=C(CCl)N1CCCC1c1ccc2c(c1)OCCO2 (stereo not given)
59 to 61	CC(C)c1nn(-c2ccccc2)cc1C=O
136 to 138	COC(=O)Cn1cnc(N)n1
317 to 319	N=c1[nH]cc(S(=O)(=O)O)cc1[N+](=O)[O-]
215 to 217	O=C(O)Cc1c[nH]c2ncccc12
49 to 51	CC(=O)c1cccc([N+](=O)[O-])c1C
69 to 71	CC(O)C(C)c1ccc2ccccc2n1 (stereo not given)
250 to 252	O=c1[nH]c2cc(Cl)ccc2c(=O)o1
213 to 215	O=C(O)c1ccc(Cl)c(S(=O)(=O)Nc2ccccc2Cl)c1
122 to 124	CCN(CC)S(=O)(=O)c1ccc(Oc2cccc(C)c2)c(N)c1
129 to 131	COC(=O)c1ccc(I)cn1
206 to 208	Cc1ccc(-n2ncc(Cl)c(Cl)c2=O)cc1Cl
99 to 101	CN(C)c1ccc(C2=CCNC2)cc1
98 to 100	N#CCCN(C(=O)CCC(=O)O)c1ccccc1
45 to 47	O=C(CC(F)(F)F)c1cc(F)ccc1F

melting point [°C]	Compound
277 to 279	CCOC(=O)c1sc2nc(CS(=O)(=O)CC(=O)O)[nH]c(=O)c2c1C
73 to 77	Nc1cccc(S(=O)(=O)N2CCCCCC2)c1
162 to 164	CCc1cc(=O)[nH]c(-c2ccccc2)n1
131 to 133	COC(C)c1ncc(C(=O)O)s1 (stereo not given)
174 to 176	NS(=O)(=O)c1ccc(C(F)(F)F)cn1
61 to 63	N#Cc1cccc(C(=O)N2CCCCC2)c1
126 to 128	O=C(CCCl)Nc1ccc(Br)cc1
195 to 197	Nc1ncncc1-c1ccc(Cl)cc1
165 to 167	O=C(O)c1ccc(OC2CCCC2)nc1
269 to 271	Cc1noc2ncnc(N)c12
188 to 190	O=c1[nH]nc(Br)c(=O)[nH]1
181 to 183	NNC(=S)Nc1cc(S(=O)(=O)N2CCOCC2)ccc1Cl
98 to 100	CCn1cnnc1S
168 to 170	CC(C)(C)OC(=O)Nc1cccc(C(N)=NO)c1
136 to 138	COC(=O)c1c[nH]c(C)n1
199 to 201	NNC(=O)c1ccc(S(=O)(=O)N2CCCC2)cc1
92 to 94	CC(=O)NCCOc1ccc(N)cc1
169 to 171	Nc1ccc(S(=O)(=O)NC2CC2)cn1
154 to 156	CN(c1ccc(O)cc1)S(=O)(=O)c1ccc(Cl)cc1
142 to 144	O=C(O)CNS(=O)(=O)c1ccc(Cl)s1
60 to 64	O=C(O)CCCNC(=O)OCc1ccccc1
87 to 89	O=C(O)c1ccccc1N1CCCC1
171 to 173	NC(=O)c1ccsc1NC(=O)CCCl
94 to 96	Cc1ccc(NCCC(N)=S)cc1

melting point [°C]	Compound
135 to 137	CCN(CC)c1ccc(S(N)(=O)=O)cc1NC(=O)CCl
175 to 177	NC(=O)NCc1ccc(S(N)(=O)=O)cc1
172 to 174	Cc1cc(C)c(O)c(C(=O)O)c1
205 to 207	Cc1ccccc1-n1nc(C(=O)O)c2c1CCC2
75 to 77	c1ccc(-c2csc(N3CCOCC3)n2)cc1
130 to 132	O=S(=O)(c1ccc(Cl)nc1)N1CCCCC1
114 to 116	Cc1nnc(CO)n1C1CC1
115 to 117	O=[N+]([O-])c1ccc2oc(CCl)nc2c1
160 to 164	Nc1nc2c(F)c(F)c(F)cc2s1
80 to 84	N#CCCC(=O)c1ccco1
77 to 79	O=C(CC(=O)NCC1CCCO1)NCC1CCCO1 (stereo not given)
157 to 159	Nc1cc(Cl)ccc1C(=O)Nc1ccc(Cl)cn1
169 to 171	CC(C)NC(=O)Nc1ccccc1[N+](=O)[O-]
162 to 164	CC(C)(C)OC(=O)N1CCOCC1C(=O)O (stereo not given)
59 to 61	Clc1cc(Cl)cc(OCC2CCNCC2)c1
161 to 163	CCNc1ccc(S(=O)(=O)N(C)C)cc1N
154 to 156	Nc1cccc(-c2nc(C3CC3)n[nH]2)c1
138 to 140	O=C(O)CNC(=O)c1ccccc1Br
106 to 108	COCc1nc(C(=O)O)cs1
211 to 213	Cc1cccc2nc(CSc3ccccc3C(=O)O)cc(=O)n12
55 to 57	CC(C(=O)O)c1ccc(Br)s1 (stereo not given)
69 to 71	FC(F)(F)c1nnc2ccc(Cl)nn12
262 to 264	COc1ccc(C(=O)O)cc1S(=O)(=O)N1CC(C)CC(C)C1 (stereo not given)
52 to 54	CCOC(=O)C(=O)c1nccn1C

melting point [°C]	Compound
223 to 225	COc1ccc2c(c1)NC(=O)C2=O
133 to 135	O=C(O)C1CCN(S(=O)(=O)c2cccs2)CC1
180 to 182	Nc1ccc(F)c(NC(=O)Cc2ccccc2)c1
130 to 132	N#Cc1cccc([N+](=O)[O-])c1O
122 to 124	CC(C)(C(N)=O)c1ccc(N)cc1
106 to 108	Nc1ccc(Br)c(Cl)c1[N+](=O)[O-]
44 to 46	CNc1cnccn1
220 to 222	O=C(CC(=O)Nc1ccccc1)Nc1ccccc1
135 to 140	NNC(=O)Cc1nc(-c2ccccc2)cs1
72 to 74	Ic1ccc(OCc2cccnc2)cc1
139 to 141	Cc1ccc(-c2nc(C(=O)O)cs2)n1C
192 to 194	Cn1c(-c2ccccc2)c(C(=O)O)c2ccccc21
83 to 85	O=C(O)CN1CCCS1(=O)=O
169 to 171	O=C(CCl)Nc1ccccc1C(=O)Nc1ccc2c(c1)OCO2
120 to 122	Cc1ncc(N)s1
124 to 126	Clc1cc2c(cc1Br)OCCN2
179 to 181	O=C(O)c1cc2cccc(C(F)(F)F)c2[nH]1
189 to 191	O=C(CSc1ccccc1C(=O)O)c1ccc(-c2ccccc2)cc1
146 to 148	CC(C)c1cc(C(=O)O)nn1-c1ccccn1
139 to 142	CC(=O)c1ccc(S(=O)(=O)N2CCCCC2)cc1
228 to 230	Cn1nc(Br)c2c(N)ncnc21
256 to 258	NS(=O)(=O)c1ccc(F)c2ncccc12
113 to 115	O=C(O)c1cccc(OCc2ccccc2)c1
175 to 186	O=C(O)/C=C/c1ccc(Br)c(Cl)c1

melting point [°C]	Compound
147 to 149	N#Cc1ccccc1Oc1ccccc1C(=O)O
202 to 204	O=C(O)c1ccc(O)cc1F
63 to 65	COCCCNC(=O)CC#N
79 to 81	Cc1noc(C)c1CNC(=O)CCl
108 to 110	CN(C)S(=O)(=O)c1ccsc1C(=O)O
121 to 123	O=C(CCl)N1CCN(S(=O)(=O)c2ccc(F)c(Cl)c2)CC1
108 to 110	Sc1nc(-c2cccs2)no1
78 to 80	COc1cc(OC)cc(N2CCC(Br)C2=O)c1 (stereo not given)
217 to 219	CC(=O)Nc1sc(C)c(C)c1C(=O)O
53 to 55	O=C(NC1CC1)OCC(F)(F)F
293 to 295	COc1cc2ncc(C(=O)O)c(O)c2cc1OC
179 to 181	O=C1Cn2ccnc2CN1
66 to 68	CS(=O)(=O)NCc1cccc(Br)c1
284 to 286	Cc1ccc(Oc2ccc3[nH]c(C)c(C)c(=O)c3c2)cc1
184 to 186	Cc1ccc(N2CC(C(=O)O)CC2=O)cc1 (stereo not given)
78 to 80	CC(N)c1ccc(-n2cncn2)cc1 (stereo not given)
134 to 136	c1n[nH]c2c1CCNC2
64 to 66	COc1cccc(COc2cccc(Cl)c2C=O)c1
121 to 123	Sc1nnc(-c2ccco2)n1-c1ccccc1
41 to 43	Sc1ccc2c(c1)OCCCO2
144 to 146	NS(=O)(=O)C1CCS(=O)(=O)C1 (stereo not given)
159 to 161	COCc1cc(O)ncn1
137 to 139	CC(C)(C)c1nc2ccc(N)cc2s1
40 to 42	Clc1ncc(-c2ccccc2)s1

melting point [°C]	Compound
149 to 151	O=C(Nc1ccc(S(=O)(=O)Cl)cc1)c1ccc(F)cc1
139 to 141	Cc1ccc(-n2c(C)c(Br)c3c2CCCC3=O)cc1
209 to 211	Cc1cc(COc2ccc(C(=O)O)cc2Br)on1
85 to 89	CC(C)COc1cccc(C(=O)O)c1
68 to 70	CCNS(=O)(=O)c1cc(F)ccc1F
174 to 176	Cn1c(-c2cccc(O)c2)nc2ccccc21
157 to 159	CC(C)(C)c1ccc2cc(C(=O)O)[nH]c2c1
137 to 139	CCCN1CCCC(C(=O)O)C1 (stereo not given)
204 to 206	CCn1c(=O)c(C)nc2cc(C(=O)O)ccc21
138 to 140	NC(=O)c1cccc2[nH]ccc12
71 to 73	O=[N+]([O-])c1cnc2c(c1)CCCC2
162 to 164	N#CC1(C(=O)O)CCOCC1
183 to 185	CS(=O)(=O)c1ccc(Cl)c(C(=O)O)c1
164 to 166	CC(C)(C)OC(=O)Nc1ccc(Cc2nc(C(=O)O)cs2)cc1
180 to 182	NNC(=O)c1c(Cl)cccc1Cl
229 to 231	NNC(=O)c1c[nH]c2ccccc12
88 to 90	O=c1ccccn1CCO
149 to 151	O=C(O)c1nnn(-c2cccc(F)c2)c1C1CC1
107 to 109	NS(=O)(=O)NCc1ccccc1

Compound	melting point [°C]
c1ccc2[nH]c(C3CCNCC3)nc2c1	253 to 255
CC(C)N(O)C(=O)C(=O)O	99 to 101
CN1CCN(c2ccc(N)cc2Cl)CC1	127 to 129
Fc1ccc(CBr)c(Br)c1	51 to 53
O=C(CCl)NCC(F)(F)F	51 to 53
N#CCCn1cc(C(N)=O)cn1	179 to 181
